Experimental findings from US20160287589A1, “SUBSTITUTED-IMIDAZOPYRIDAZINES” (BAYER PHARMA AKTIENGESELLSCHAFT, priority 2013, published 2016) are described below.

Test [1] deals with T1, MKNK1 (Homo sapiens, UniProt Q9BUB5, T385D).
T1 construct: GST (N); purchased Carna Biosciences 02-145; host or cells: insect cells (baculovirus expression system)
Description: MKNK1 kinase high ATP assay (TR-FRET-based). The format is biochemical. To be noted: Table 2c; 2 mM ATP, 15 min preincubation. In outline:
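GST-tagged full-length human MKNK1 (aa 1-424, T344D) from insect cells, preincubated with compound 15 min at 22 °C. Reaction 30 min at 22 °C with 2 mM ATP and 0.06 μM biotinylated peptide in HEPES pH 7.5, Mg2+, DTT. Phosphopeptide detected by TR-FRET (665/622 ratio) with anti-pS6 (pSer236) antibody; normalised to no-inhibitor and no-enzyme controls.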
A general note: TR-FRET usually uses a lanthanide donor and a delayed reading to cut background.

Test [2] deals with T1, MKNK1. In words: MKNK1 kinase assay (MKNK1 TR-FRET assay). The class given is biochemical. To be noted: Table 1c; 10 μM ATP, 15 min preincubation.

Each structure is given as a SMILES string.

T1 sequence (Q9BUB5 1-424 isoform Q9BUB5-2 T344D): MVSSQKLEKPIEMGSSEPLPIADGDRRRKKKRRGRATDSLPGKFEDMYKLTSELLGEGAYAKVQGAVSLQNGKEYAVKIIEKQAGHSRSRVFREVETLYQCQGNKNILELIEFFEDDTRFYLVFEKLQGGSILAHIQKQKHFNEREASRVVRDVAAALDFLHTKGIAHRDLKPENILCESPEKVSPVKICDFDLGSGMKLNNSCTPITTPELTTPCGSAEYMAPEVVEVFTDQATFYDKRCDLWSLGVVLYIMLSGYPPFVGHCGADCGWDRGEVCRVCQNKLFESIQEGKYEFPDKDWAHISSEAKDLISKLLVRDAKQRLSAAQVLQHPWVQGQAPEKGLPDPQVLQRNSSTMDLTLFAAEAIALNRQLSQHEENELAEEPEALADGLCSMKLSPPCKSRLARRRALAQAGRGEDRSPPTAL

As usually defined, the IC50 is the point on the concentration scale where inhibition reaches its midpoint. For `C[C@@H]1CN(c2nccc3oc(-c4cnc5ccc(OCCCS(C)(=O)=O)nn45)cc23)C[C@H](C)O1` [III-53, 3-{4-[(2R,6S)-2,6-Dimethylmorpholin-4-yl]furo[3,2-c]pyridin-2-yl}-6-[3-(methyl-sulfonyl)propoxy]imidazo[1,2-b]pyridazine], the results for the IC50 at MKNK1 [1] and at MKNK1 [2] were 26.7 nM and 8.7 nM, respectively.
On the same counts, the results for `CN(CCCO)c1nccc2oc(-c3cnc4ccc(OCCCS(C)(=O)=O)nn34)cc12` [III-54, 3-[Methyl(2-{6-[3-(methylsulfonyl)propoxy]imidazo[1,2-b]pyridazin-3-yl}furo[3,2-c]pyridin-4-yl)amino]propan-1-ol] are 6.2 nM and 2.8 nM.
The corresponding values for `CN(C)C1CCN(c2nccc3oc(-c4cnc5ccc(OCCCS(C)(=O)=O)nn45)cc23)CC1` [III-55, N,N-Dimethyl-1-(2-{6-[3-(methylsulfonyl)propoxy]imidazo[1,2-b]pyridazin-3-yl}furo[3,2-c]pyridin-4-yl)piperidin-4-amine] are 7.8 nM and 3.7 nM.
On the same counts, the results for `CS(=O)(=O)CCCOc1ccc2ncc(-c3cc4c(N5CCN(c6ccccc6)CC5)nccc4o3)n2n1` [III-56, 6-[3-(Methylsulfonyl)propoxy]-3-[4-(4-phenylpiperazin-1-yl)furo[3,2-c]pyridin-2-yl]imidazo[1,2-b]pyridazine] are 16.9 nM and 20.8 nM.
In the case of `CS(=O)(=O)CCCOc1ccc2ncc(-c3cc4c(N5CCC(CO)CC5)nccc4o3)n2n1` [III-57, [1-(2-{6-[3-(Methylsulfonyl)propoxy]imidazo[1,2-b]pyridazin-3-yl}furo[3,2-c]pyridin-4-yl)piperidin-4-yl]methanol], the concentration for half-maximal inhibition (IC50) against MKNK1 [1] amounted to 3.6 nM; on MKNK1 [2], 1.5 nM.
The corresponding values for `C[C@@H]1COCCN1c1nccc2oc(-c3cnc4ccc(OCCCS(C)(=O)=O)nn34)cc12` [III-58, 3-{4-[(3R)-3-Methylmorpholin-4-yl]furo[3,2-c]pyridin-2-yl}-6-[3-(methyl-sulfonyl)propoxy]imidazo[1,2-b]pyridazine] are 4.4 nM and 1 nM.
On the same counts, the results for `CN1CCN(c2nccc3oc(-c4cnc5ccc(OC[C@H]6CCC(=O)N6)nn45)cc23)CC1` [III-61, (5R)-5-[({3-[4-(4-Methylpiperazin-1-yl)furo[3,2-c]pyridin-2-yl]imidazo[1,2-b]pyridazin-6-yl}oxy)methyl]pyrrolidin-2-one] are 1.2 nM and 1 nM.
On the same counts, the results for `O=C1CC[C@H](COc2ccc3ncc(-c4cc5c(N6CCCCC6)nccc5o4)n3n2)N1` [III-62, (5R)-5-[({3-[4-(Piperidin-1-yl)furo[3,2-c]pyridin-2-yl]imidazo[1,2-b]pyridazin-6-yl}oxy)methyl]pyrrolidin-2-one] are 1 nM and 2.4 nM.
As to `CC(C)(C)N1CCN(c2nccc3oc(-c4cnc5ccc(OC[C@H]6CCC(=O)N6)nn45)cc23)CC1` [III-63, (5R)-5-[({3-[4-(4-tert-Butylpiperazin-1-yl)furo[3,2-c]pyridin-2-yl]imidazo-[1,2-b]pyridazin-6-yl}oxy)methyl]pyrrolidin-2-one], the IC50 stood at 12.6 nM against MKNK1 [1] and 4.3 nM against MKNK1 [2].
The corresponding values for `CN(C)[C@@H]1CCN(c2nccc3oc(-c4cnc5ccc(OC[C@H]6CCC(=O)N6)nn45)cc23)C1` [III-64, (5R)-5-{[(3-{4-[(3R)-3-(Dimethylamino)pyrrolidin-1-yl]furo[3,2-c]pyridin-2-yl}imidazo[1,2-b]pyridazin-6-yl)oxy]methyl}pyrrolidin-2-one] are 0.1 nM and 0.4 nM.
On the same counts, the results for `CN1CCC(N(C)c2nccc3oc(-c4cnc5ccc(OC[C@H]6CCC(=O)N6)nn45)cc23)CC1` [III-65, (5R)-5-{[(3-{4-[Methyl(1-methylpiperidin-4-yl)amino]furo[3,2-c]pyridin-2-yl}imidazo[1,2-b]pyridazin-6-yl)oxy]methyl}pyrrolidin-2-one] are 19.9 nM and 11.6 nM.
